Measured values reported in patent US4250259A, “Microbiological production of ketones from C3 -C6 secondary alcohols” (priority 1979, dated 1981).

Columns and labels:
[1] = system: Methanomonas methylovora ATCC 21852 (Obligate); test: sec-alcohols to ketones by resting cell suspensions; type: cell-based
Procedure: (§1) The pH of the nutrient medium was adjusted to 7.0 by the addition of acid or base and 50 ml. samples of the nutrient medium were charged into a plurality of 300 ml. shaker flasks. The shaker flasks were inoculated with an inoculating loop of cells from an agar plate containing homogeneous colonies of the microorganisms on the plate (the purity of the isolates was confirmed by microscopic examination). The isolates had been maintained on methanol (0.4% V/V) agar plates or on agar plates under an atmosphere of methane and air having a 1:1 V/V gas ratio which had been transferred every two weeks. For growth on methanol, the medium was supplemented with 0.4% methanol. For growth on methane, the gaseous phase of the inoculated flasks was replaced with a gas mixture comprised of methane and air having a ratio of 1:1 on a V/V basis. The inoculated flasks were sealed air-tight and were incubated on a rotary shaker of orbital radius 2.5 cm. at 250 rpm and at 30° C. for two days until turbidity in the medium had developed. The cells were harvested by centrifugation at 10,000×g. at 4° C. for 30 minutes. The cell pellet was washed twice with a 0.05 M phosphate buffer at a pH of 7.0 (containing 0.02 M MgCl2). The washed cells were then suspended in a 0.05 M phosphate buffer at pH 7.0.
(§2) A 0.5 ml. sample of each washed cell suspension (2 mg. cells) was put into 10 ml. vials at 4° C. which were sealed with a rubber cap. The gaseous phase of the vials was removed with vacuum and then was replaced with a gas mixture of the substrate reactant (i.e., alkane or secondary alcohol) and oxygen at a 1:1 V/V ratio. (In the case of a liquid substrate, i.e., secondary alcohol, 10 μl of the substrate was put in the 10 ml. vials). […] Samples of product (1-3 μl) were withdrawn periodically with a microsyringe and the products were analyzed by gas chromatography (ionization flame detector column).
(§3) The procedure in Example 1 was repeated except that a plurality of methanol-utilizing methylotrophic microorganisms were each aerobically grown in a methanol-containing nutrient medium instead of a methane-containing medium. The nutrients in the medium were the same as indicated in Example 1 except that 0.4% V/V methanol was used as the alcohol dehydrogenase inducer and as the major carbon and energy source for growth. The cells were harvested and washed as described in Example 1. The resting microbial cells of the induced methanol-grown methanol-utilizing methylotrophic microorganisms were then contacted with C3 -C6 secondary alcohols in a buffered solution by the procedure of Example 1.
(§4) The procedure in Example 1 was repeated except that the methylotrophic microorganisms were each aerobically grown in an alcohol dehydrogenase-inducing growth medium containing methylamine or methyl formate as the alcohol dehydrogenase enzyme inducer and growth substrate instead of methane. The nutrients in the medium were the same as indicated in Example 1 except that 0.4% V/V of the alcohol dehydrogenase-inducer growth substrate was used as the major carbon and energy source. The cells were harvested and washed as described in Example 1. The resting microbial cells were then contacted with C3 -C6 secondary alcohols in a buffered solution by the conversion procedure of Example 1.

[2] = system: Pseudomonas sp. ATCC 21438 (Facultative); test: as above; type: cell-based
Procedure: as §1, §2, §3, §4

[3] = system: secondary alcohol dehydrogenase (SADH), cell-free soluble extract; test: oxidation of sec-alcohols by cell-free soluble extracts; type: biochemical, Methylosinus trichosporium OB3b (NRRL B-11,196); conditions: for Oxidation Rate, sec-alcohol to corresponding ketone: soluble crude extract, grown on methanol
Procedure: (§5) To prepare the cell-free secondary alcohol dehydrogenase (SADH) system, the washed cells were disrupted with a Wave Energy Ultrasonic Oscillator, Model W201 (Wave Energy System, Inc., Newtown, Pa.) and centrifuged at 20,000×g. for 30 minutes. […] The enzyme activity was measured with a fluorescence spectrophotometer (Perkin Elmer, Model MPF 44A) by following the formation of reduced NAD (EX 340 nm, Em 460 nm). The formation of reduced NAD was also followed with an absorption spectrophotometer at 340 nm. The assay system (3 ml.) contained: potassium phosphate buffer pH 7.0; 150 μmol.; NAD 1 μmol.; a given amount of enzyme preparation; and secondary alcohol 10 μmol. The reaction was started by the addition of substrate. One unit of enzyme activity represents the reduction of one μmole NAD per minute. Protein concentrations were determined by the Lowry method (J. Biol. Chem., 193: 255-275 (1951)).
(§6) The experimental procedure for the tests reported in Table VIII were as follows: 1 mg protein of crude extract was added into a 0.5 ml. 0.05 M phosphate buffer (pH 7.0) in a 10-ml. vial. […] The reaction mixture was incubated at 30° C. on a water bath. A 3 μl sample was removed with a syringe at 15 min. of incubation and was assayed with g.l.c. Catalytic activity was also assayed by fluorescence spectrophotometry.

[4] = system: secondary alcohol dehydrogenase (SADH), cell-free soluble extract; test: as above; type: biochemical, Pseudomonas sp. CRL 75 (ATCC 21,439); conditions: for Oxidation Rate, sec-alcohol to corresponding ketone: soluble crude extract, grown on methanol
Procedure: as §5, §6

[5] = system: purified secondary alcohol dehydrogenase; test: substrate specificity, electron acceptor and stoichiometry of purified yeast SADH; conditions: for oxidation by the purified yeast secondary alcohol dehydrogenase: examined spectrophotometrically; for Product Formed: stoichiometry, Acetone from Isopropanol, 2-Butanone from 2-Butanol, gas chromatography
[6] = system: Torulopsis sp. Strain A1 (NRRLY-11,419); test: sec-alcohols to ketones by cell suspensions of yeasts; type: cell-based
[7] = system: Hansenula polymorpha ATCC 26012; test: as above; type: cell-based
[8] = system: Methylobacterium organophilum XX (ATCC 27886); test: sec-alcohols to ketones by resting cell suspensions; type: cell-based
Procedure: as §1, §2
The procedure in Example 1 was repeated wherein a plurality of the methane-utilizing methylotrophic microorganisms were each grown aerobically in a nutrient medium containing methane as the alcohol dehydrogenase enzyme inducer and as the major carbon and energy source for growth. The cells were harvested and washed as described in Example 1. The resting microbial cells of the induced methane-grown methane-utilizing methylotrophic microorganisms were then contacted with C3 -C6 secondary alcohols in a buffered solution by the procedure of Example 1.
In this example, the procedure in Example 1 was repeated except that a plurality of methane-utilizing methylotrophic microorganisms were each aerobically grown in a methanol-containing nutrient medium instead of a methane-containing medium. The nutrients in the medium were the same as indicated in Example 1 except that 0.4% V/V methanol was used as the alcohol dehydrogenase inducer and major source of carbon and energy for growth. Following growth, the cells were harvested and washed as described in Example 1.
The resting cells of the induced methanol-grown methylotrophic microorganisms were then contacted with secondary alcohols in a buffered solution by the procedure described in Example 1.
as §4

CCCC(C)O (stereo not shown) [2-Pentanol, 2-pentanol]
Conversion Rates, sec-alcohol to corresponding ketone ([1]; methanol-grown cells): 2.1 μmoles/hr/mg protein | Conversion Rates, sec-alcohol to corresponding ketone ([1]; methyl formate-grown cells): 1.5 μmoles/hr/mg protein | Conversion Rates, sec-alcohol to corresponding ketone ([1]; methylamine-grown cells): 1.0 μmoles/hr/mg protein | Conversion Rates, sec-alcohol to corresponding ketone ([2]; methanol-grown cells): 2.7 μmoles/hr/mg protein | Conversion Rates, sec-alcohol to corresponding ketone ([2]; methyl formate-grown cells): 2.0 μmoles/hr/mg protein | Conversion Rates, sec-alcohol to corresponding ketone ([2]; methylamine-grown cells): 0.82 μmoles/hr/mg protein | Oxidation Rate, sec-alcohol to corresponding ketone [3]: 0.1 nmole/min/mg protein | Oxidation Rate, sec-alcohol to corresponding ketone [4]: 1.2 nmole/min/mg protein | oxidation by the purified yeast secondary alcohol dehydrogenase [5]: catalyzed the oxidation | Conversion Rate, sec-alcohol to corresponding ketone ([6]; Growth Substrate Ethanol): 1.2 μmoles/hr/mg of protein | Conversion Rate, sec-alcohol to corresponding ketone ([6]; Growth Substrate Methanol): 1.0 μmoles/hr/mg of protein | Conversion Rate, sec-alcohol to corresponding ketone ([6]; Growth Substrate Methylamine): 0.9 μmoles/hr/mg of protein | Conversion Rate, sec-alcohol to corresponding ketone ([6]; Growth Substrate Methylformate): 1.1 μmoles/hr/mg of protein | Conversion Rate, sec-alcohol to corresponding ketone ([6]; Growth Substrate Propylamine): 0.62 μmoles/hr/mg of protein | Conversion Rate, sec-alcohol to corresponding ketone ([7]; Growth Substrate Ethanol): 1.1 μmoles/hr/mg of protein | Conversion Rate, sec-alcohol to corresponding ketone ([7]; Growth Substrate Methanol): 1.4 μmoles/hr/mg of protein | Conversion Rate, sec-alcohol to corresponding ketone ([7]; Growth Substrate Methylamine): 1.2 μmoles/hr/mg of protein | Conversion Rate, sec-alcohol to corresponding ketone ([7]; Growth Substrate Methylformate): 1.3 μmoles/hr/mg of protein | Conversion Rate, sec-alcohol to corresponding ketone ([7]; Growth Substrate Propylamine): 0.82 μmoles/hr/mg of protein | Conversion Rates, sec-alcohol to corresponding ketone ([8]; cells grown on methane): 0.82 μmoles/hr/mg protein | Conversion Rates, sec-alcohol to corresponding ketone ([8]; cells grown on methanol): 0.9 μn moles/hr/mg protein | Conversion Rates, sec-alcohol to corresponding ketone ([8]; methyl formate-grown cells): 1.0 μmoles/hr/mg protein

CC(C)O [2-Propanol, 2-propanol]
Conversion Rates, sec-alcohol to corresponding ketone ([1]; methanol-grown cells): 0.28 μmoles/hr/mg protein | Conversion Rates, sec-alcohol to corresponding ketone ([1]; methyl formate-grown cells): 0.62 μmoles/hr/mg protein | Conversion Rates, sec-alcohol to corresponding ketone ([1]; methylamine-grown cells): 0.82 μmoles/hr/mg protein | Conversion Rates, sec-alcohol to corresponding ketone ([2]; methanol-grown cells): 0.45 μmoles/hr/mg protein | Conversion Rates, sec-alcohol to corresponding ketone ([2]; methyl formate-grown cells): 0.52 μmoles/hr/mg protein | Conversion Rates, sec-alcohol to corresponding ketone ([2]; methylamine-grown cells): 1.0 μmoles/hr/mg protein | Oxidation Rate, sec-alcohol to corresponding ketone [3]: 2.0 nmole/min/mg protein | Oxidation Rate, sec-alcohol to corresponding ketone [4]: 21.2 nmole/min/mg protein | oxidation by the purified yeast secondary alcohol dehydrogenase [5]: catalyzed the oxidation | Product Formed [5]: 5.5 µmol | Conversion Rate, sec-alcohol to corresponding ketone ([6]; Growth Substrate Ethanol): 4.2 μmoles/hr/mg of protein | Conversion Rate, sec-alcohol to corresponding ketone ([6]; Growth Substrate Methanol): 4.5 μmoles/hr/mg of protein | Conversion Rate, sec-alcohol to corresponding ketone ([6]; Growth Substrate Methylamine): 4.3 μmoles/hr/mg of protein | Conversion Rate, sec-alcohol to corresponding ketone ([6]; Growth Substrate Methylformate): 4.5 μmoles/hr/mg of protein | Conversion Rate, sec-alcohol to corresponding ketone ([6]; Growth Substrate Propylamine): 3.2 μmoles/hr/mg of protein | Conversion Rate, sec-alcohol to corresponding ketone ([7]; Growth Substrate Ethanol): 5.0 μmoles/hr/mg of protein | Conversion Rate, sec-alcohol to corresponding ketone ([7]; Growth Substrate Methanol): 5.9 μmoles/hr/mg of protein | Conversion Rate, sec-alcohol to corresponding ketone ([7]; Growth Substrate Methylamine): 5.2 μmoles/hr/mg of protein | Conversion Rate, sec-alcohol to corresponding ketone ([7]; Growth Substrate Methylformate): 5.6 μmoles/hr/mg of protein | Conversion Rate, sec-alcohol to corresponding ketone ([7]; Growth Substrate Propylamine): 4.1 μmoles/hr/mg of protein | Conversion Rates, sec-alcohol to corresponding ketone ([8]; cells grown on methane): 0.5 μmoles/hr/mg protein | Conversion Rates, sec-alcohol to corresponding ketone ([8]; cells grown on methanol): 0.70 μn moles/hr/mg protein | Conversion Rates, sec-alcohol to corresponding ketone ([8]; methyl formate-grown cells): 0.48 μmoles/hr/mg protein

CCC(C)O (stereo not shown) [2-Butanol, 2-butanol]
Conversion Rates, sec-alcohol to corresponding ketone ([1]; methanol-grown cells): 2.5 μmoles/hr/mg protein | Conversion Rates, sec-alcohol to corresponding ketone ([1]; methyl formate-grown cells): 2.1 μmoles/hr/mg protein | Conversion Rates, sec-alcohol to corresponding ketone ([1]; methylamine-grown cells): 3.2 μmoles/hr/mg protein | Conversion Rates, sec-alcohol to corresponding ketone ([2]; methanol-grown cells): 3.2 μmoles/hr/mg protein | Conversion Rates, sec-alcohol to corresponding ketone ([2]; methyl formate-grown cells): 3.2 μmoles/hr/mg protein | Conversion Rates, sec-alcohol to corresponding ketone ([2]; methylamine-grown cells): 2.1 μmoles/hr/mg protein | Conversion Rate, 2-butanol to 2-butanone ([3]; Growth Substrate CH3 NH2): 2.5 nmoles/min/mg protein | Conversion Rate, 2-butanol to 2-butanone ([3]; Growth Substrate CH3 OH): 2.4 nmoles/min/mg protein | Conversion Rate, 2-butanol to 2-butanone ([3]; Growth Substrate CH4): 4.5 nmoles/min/mg protein | Conversion Rate, 2-butanol to 2-butanone ([3]; Growth Substrate HCOOCH3): 2.0 nmoles/min/mg protein | Oxidation Rate, sec-alcohol to corresponding ketone [3]: 2.4 nmole/min/mg protein | Conversion Rate, 2-butanol to 2-butanone ([4]; Growth Substrate CH3 OH): 25.0 nmoles/min/mg protein | Oxidation Rate, sec-alcohol to corresponding ketone [4]: 25.0 nmole/min/mg protein | oxidation by the purified yeast secondary alcohol dehydrogenase [5]: catalyzed the oxidation | Product Formed [5]: 5.7 µmol | Conversion Rate, sec-alcohol to corresponding ketone ([6]; Growth Substrate Ethanol): 4.7 μmoles/hr/mg of protein | Conversion Rate, sec-alcohol to corresponding ketone ([6]; Growth Substrate Methanol): 4.9 μmoles/hr/mg of protein | Conversion Rate, sec-alcohol to corresponding ketone ([6]; Growth Substrate Methylamine): 4.5 μmoles/hr/mg of protein | Conversion Rate, sec-alcohol to corresponding ketone ([6]; Growth Substrate Methylformate): 4.9 μmoles/hr/mg of protein | Conversion Rate, sec-alcohol to corresponding ketone ([6]; Growth Substrate Propylamine): 3.8 μmoles/hr/mg of protein | Conversion Rate, sec-alcohol to corresponding ketone ([7]; Growth Substrate Ethanol): 4.8 μmoles/hr/mg of protein | Conversion Rate, sec-alcohol to corresponding ketone ([7]; Growth Substrate Methanol): 5.8 μmoles/hr/mg of protein | Conversion Rate, sec-alcohol to corresponding ketone ([7]; Growth Substrate Methylamine): 4.5 μmoles/hr/mg of protein | Conversion Rate, sec-alcohol to corresponding ketone ([7]; Growth Substrate Methylformate): 5.2 μmoles/hr/mg of protein | Conversion Rate, sec-alcohol to corresponding ketone ([7]; Growth Substrate Propylamine): 4.0 μmoles/hr/mg of protein | Conversion Rates, sec-alcohol to corresponding ketone ([8]; cells grown on methane): 2.5 μmoles/hr/mg protein | Conversion Rates, sec-alcohol to corresponding ketone ([8]; cells grown on methanol): 2.8 μn moles/hr/mg protein | Conversion Rates, sec-alcohol to corresponding ketone ([8]; methyl formate-grown cells): 3.5 μmoles/hr/mg protein
